{
  "source": "PubChem BioAssay (NCI)",
  "assay_in_all_cases": "NCI-60 cell line screen, 48 h",
  "key": {"UO-31 renal": {"test_system": "UO-31 renal"}, "RXF 393 renal": {"test_system": "RXF 393 renal"}, "UACC-257 melanoma": {"test_system": "UACC-257 melanoma"}, "SK-MEL-5 melanoma": {"test_system": "SK-MEL-5 melanoma"}, "SK-OV-3 ovarian": {"test_system": "SK-OV-3 ovarian"}, "UACC-62 melanoma": {"test_system": "UACC-62 melanoma"}, "SF-295 CNS": {"test_system": "SF-295 CNS"}, "SK-MEL-28 melanoma": {"test_system": "SK-MEL-28 melanoma"}, "TK-10 renal": {"test_system": "TK-10 renal"}, "SK-MEL-2 melanoma": {"test_system": "SK-MEL-2 melanoma"}, "CAKI-1 renal": {"test_system": "CAKI-1 renal"}, "DU-145 prostate": {"test_system": "DU-145 prostate"}, "OVCAR-5 ovarian": {"test_system": "OVCAR-5 ovarian"}, "SN12C renal": {"test_system": "SN12C renal"}, "A498 renal": {"test_system": "A498 renal"}},
  "note": "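All cell lines were grown in 96-well plates and treated with compound for 48 hours. The concentration for 50% growth inhibition is given as GI50. TGI: total growth inhibition.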",
  "data": [
    {"smiles": "N#Cc1c(-c2ccc(Cl)cc2)nc(SCc2ccc([N+](=O)[O-])cc2)nc1N1CCNCC1", "values": [
      {"measurement": "GI50", "setting": "UO-31 renal", "value": 1320, "unit": "nM"},
      {"measurement": "TGI", "setting": "UO-31 renal", "value": 2590, "unit": "nM"},
      {"measurement": "GI50", "setting": "RXF 393 renal", "value": 1540, "unit": "nM"},
      {"measurement": "TGI", "setting": "RXF 393 renal", "value": 2970, "unit": "nM"},
      {"measurement": "GI50", "setting": "UACC-257 melanoma", "value": 1620, "unit": "nM"},
      {"measurement": "TGI", "setting": "UACC-257 melanoma", "value": 3060, "unit": "nM"},
      {"measurement": "GI50", "setting": "SK-MEL-5 melanoma", "value": 1680, "unit": "nM"},
      {"measurement": "TGI", "setting": "SK-MEL-5 melanoma", "value": 3060, "unit": "nM"},
      {"measurement": "GI50", "setting": "SK-OV-3 ovarian", "value": 1780, "unit": "nM"},
      {"measurement": "TGI", "setting": "SK-OV-3 ovarian", "value": 3200, "unit": "nM"},
      {"measurement": "GI50", "setting": "UACC-62 melanoma", "value": 1690, "unit": "nM"},
      {"measurement": "TGI", "setting": "UACC-62 melanoma", "value": 3110, "unit": "nM"},
      {"measurement": "GI50", "setting": "SF-295 CNS", "value": 1780, "unit": "nM"},
      {"measurement": "TGI", "setting": "SF-295 CNS", "value": 3210, "unit": "nM"},
      {"measurement": "GI50", "setting": "SK-MEL-28 melanoma", "value": 1640, "unit": "nM"},
      {"measurement": "TGI", "setting": "SK-MEL-28 melanoma", "value": 3020, "unit": "nM"},
      {"measurement": "GI50", "setting": "TK-10 renal", "value": 1560, "unit": "nM"},
      {"measurement": "TGI", "setting": "TK-10 renal", "value": 2960, "unit": "nM"},
      {"measurement": "GI50", "setting": "SK-MEL-2 melanoma", "value": 1610, "unit": "nM"},
      {"measurement": "TGI", "setting": "SK-MEL-2 melanoma", "value": 3050, "unit": "nM"},
      {"measurement": "GI50", "setting": "CAKI-1 renal", "value": 1550, "unit": "nM"},
      {"measurement": "TGI", "setting": "CAKI-1 renal", "value": 2900, "unit": "nM"},
      {"measurement": "GI50", "setting": "DU-145 prostate", "value": 1730, "unit": "nM"},
      {"measurement": "TGI", "setting": "DU-145 prostate", "value": 3110, "unit": "nM"},
      {"measurement": "GI50", "setting": "OVCAR-5 ovarian", "value": 1560, "unit": "nM"},
      {"measurement": "TGI", "setting": "OVCAR-5 ovarian", "value": 2980, "unit": "nM"},
      {"measurement": "GI50", "setting": "SN12C renal", "value": 1770, "unit": "nM"},
      {"measurement": "TGI", "setting": "SN12C renal", "value": 3260, "unit": "nM"},
      {"measurement": "GI50", "setting": "A498 renal", "value": 1560, "unit": "nM"},
      {"measurement": "TGI", "setting": "A498 renal", "value": 2980, "unit": "nM"}
    ]}
  ]
}
